Source: patent publication EP2444091B1, “USE OF T[…] MELIA AZEDARACH EXTRACTS FOR PREVENTING OR TREATING DEMENTIA” (Ildong Pharm Co., Ltd., priority 2009, dated 2010)

Tests used:
Aβ40 = Aβ40 quantification in rat serum before/after oral administration; type: in vivo; details: 5mg/kg oral, blood after two hours
Description: Before administration of toosendanin, blood was secured. Then, toosendanin suspended in 20% ethyl alcohol was orally administered in doses of 5 and 50mg/kg. After two hours, the blood was collected, and the concentration change of Aβ within the blood before/after administration was measured. The collected blood was centrifuged (16,000×g, 20 minutes, 4°C), and Aβ40 within the collected serum was quantified by using an Aβ40 quantitative analysis kit (Mouse/Rat Amyloidβ (1-40) High Specific Assay Kit, IBL, Japan).

[1] = system: APPα and APPβ (APP metabolites); assay: APPα and APPβ production in culture medium by western blot, BA-3 cell line overexpressing BACE1 and APP695; type: cell-based
Description: A HEK293-derived BA-3 cell line overexpressing BACE1(β-secretase) and APP695 was plated on 6-well plate by using DMEM (Dulbecco's Modified Eagle's Medium) including 10% fetal bovin serum (FBS) in such a manner that it occupied 80% or more of the area in each well, and then was cultured for 1 day. After the removal of the culture medium, free DMEM (not including fetal bovine serum) was heated to 37°C, and added in an amount of 0.9ml to each well. Then, toosendanin or a toosendan fructus fraction extracted with each solvent was diluted to an appropriate concentration by 0.1ml free DMEM, and the cell line was treated with these materials, and cultured for 24 hours. 0.2ml of the culture medium treated with each test sample was collected, and subjected to electrophoresis by 8% SDS-PAGE (polyacrylamide gel electrophoresis). Then, AB1560(monoclonal) and Rb53(polyclonal) antibodies (antibodies against APPα and APPβ) were used to measure the amounts of APPα and APPβ within the culture medium through western blotting.
Extracts (ethyl alcohol, methanol, ethyl acetate, and 90% methanol) of meliae cortex (bark of chinaberry) were obtained under the same organic solvent extraction condition of toosendan fructus. Then, their effects on APPβ production reduction were tested.
On the toosendan fructus ethyl alcohol extract obtained from Example 9-1, an APPβ production reducing effect, an APPα production promoting effect, and an Aβ production inhibiting effect were measured in the same manner as described in Example 5.

[2] = concentration of 12.5nM or less

SMILES: CC(=O)O[C@@H]1C[C@H](O)[C@@]23CO[C@@H](O)[C@]1(C)[C@@H]2C[C@@H](O)[C@]1(C)[C@@H]3C(=O)[C@H](OC(C)=O)[C@@]2(C)[C@H](c3ccoc3)C[C@H]3O[C@]321 [toosendanin]
- inhibition of Aβ40 in serum (Aβ40): ≥ 85%
- production of APPα with respect to a non-treated group ([1]; at 0.8uM, 24 hours): 141.5%
- production of APPβ with respect to a non-treated group ([1]; at 0.8uM, 24 hours): 17.8%
- production of APPα [1, 2]: promoting the production of APPα
- production of APPβ [1, 2]: inhibited the production of APPβ
